Measurements reported in patent publication US20160135464A1, “PESTICIDAL COMPOSITIONS AND PROCESSES RELATED THERETO” (Dow AgroSciences LLC, priority 2014, published 2016).

Columns and labels:
[1] = system: Beet Armyworm (BAW) (Spodoptera exigua); assay: Bioassay on beet armyworm (BAW), 128-well diet tray assay, percent mortality; format: in vivo; details: Spodoptera exigua, 50 μg/cm^2
Experimental: (§1) Certain molecules disclosed in this document were tested against BAW and CEW using procedures described in the following examples. In the reporting of the results, the “BAW & CEW Rating Table” was used (See Table Section).
Bioassays on BAW (Spodoptera exigua)
Bioassays on BAW were conducted using a 128-well diet tray assay. One to five second instar BAW larvae were placed in each well (3 mL) of the diet tray that had been previously filled with 1 mL of artificial diet to which 50 μg/cm^2 of the test compound (dissolved in 50 μL of 90:10 acetone-water mixture) had been applied (to each of eight wells) and then allowed to dry. Trays were covered with a clear self-adhesive cover and held at 25° C., 14:10 light-dark for five to seven days. Percent mortality was recorded for the larvae in each well; activity in the eight wells was then averaged. The results are indicated in the table entitled “Table 5: Biological Results” (See Table Section).

[2] = system: Green Peach Aphid (GPA) (Myzus persicae); assay: Bioassay on green peach aphid (GPA), foliar spray on cabbage seedlings, corrected % control; format: in vivo; details: 72 h, read-out: % Mortality GPA 200 ppm
Experimental: Certain molecules disclosed in this document were tested against GPA using procedures described in the following example. In the reporting of the results, the “GPA Rating Table” was used (See Table Section).
Cabbage seedlings grown in 3-inch pots, with 2-3 small (3-5 cm) true leaves, were used as test substrate. The seedlings were infested with 20-50 GPA (wingless adult and nymph stages) one day prior to chemical application. Four pots with individual seedlings were used for each treatment. Test compounds (2 mg) were dissolved in 2 mL of acetone/methanol (1:1) solvent, forming stock solutions of 1000 ppm test compound. […] A hand-held aspirator-type sprayer was used for spraying a solution to both sides of […] leaves until runoff. Reference plants (solvent check) were sprayed with the diluent only containing 20% by volume of acetone/methanol (1:1) solvent. Treated plants were held in a holding room for three days at approximately 25° C. and ambient relative humidity (RH) prior to grading. Evaluation was conducted by counting the number of live aphids per plant under a microscope.
Corrected % Control=100*(X−Y)/X • where • X=No. of live aphids on solvent check plants and • Y=No. of live aphids on treated plants
The results are indicated in the table entitled “Table 5: Biological Results” (See Table Section).

[3] = system: Corn Earworm (CEW) (Helicoverpa zea); assay: Bioassay on corn earworm (CEW), 128-well diet tray assay, percent mortality; format: in vivo; details: Helicoverpa zea, 50 μg/cm^2
Experimental: as §1
Bioassays on CEW (Helicoverpa zea)
Bioassays on CEW were conducted using a 128-well diet tray assay. One to five second instar CEW larvae were placed in each well (3 mL) of the diet tray that had been previously filled with 1 mL of artificial diet to which 50 μg/cm^2 of the test compound (dissolved in 50 μL of 90:10 acetone-water mixture) had been applied (to each of eight wells) and then allowed to dry. Trays were covered with a clear self-adhesive cover and held at 25° C., 14:10 light-dark for five to seven days. Percent mortality was recorded for the larvae in each well; activity in the eight wells was then averaged. The results are indicated in the table entitled “Table 5: Biological Results” (See Table Section).

Row | SMILES | pest or weed control at 50 µg/cm2, 50 µg/cm2 [1] | pest or weed control at 200 ppm [2] | pest or weed control at 50 µg/cm2, 50 µg/cm2 [3] | melting point
1 | CC(C)c1cccc(F)c1N1/C(=N/N=C/c2ccc(-c3ncn(-c4ccc(OC(F)(F)F)cc4)n3)cc2)SCC1(C)O (stereo not drawn) [Compound 250C] | 50 to 100% | 0 to 80% | 50 to 100% | –
2 | Cc1ccc(N2/C(=N/N=C/c3ccc(-c4ncn(-c5ccc(OC(F)(F)F)cc5)n4)cc3)SCC2(C)O)c(C(C)C)c1 (stereo not drawn) [Compound 251C] | 50 to 100% | 0 to 80% | 50 to 100% | –
3 | CCc1ccccc1N1/C(=N/N=C/c2ccc(-c3ncn(-c4ccc(OC(F)(F)F)cc4)n3)cc2)SCC1(C)O (stereo not drawn) [Compound 254C] | 50 to 100% | 0 to 80% | 50 to 100% | –
4 | CCCc1ccccc1N1/C(=N/N=C/c2ccc(-c3ncn(-c4ccc(OC(F)(F)F)cc4)n3)cc2)SCC1(C)O (stereo not drawn) [Compound 256C] | 50 to 100% | 0 to 80% | 50 to 100% | –
5 | CC(C)c1ccccc1N1/C(=N/N=C/c2ccc(-c3ncn(-c4ccc(OC(F)(F)C(F)(F)F)cc4)n3)cc2)SCC1(C)O (stereo not drawn) [Compound 262C] | 50 to 100% | 0 to 80% | 50 to 100% | –
6 | CC(C)c1ccccc1N1/C(=N/N=C/c2ccc(-c3ncn(-c4ccc(OC(F)(F)F)cc4)n3)cc2)SCC1(O)c1ccccc1C(F)(F)F (stereo not drawn) [Compound 263C] | 50 to 100% | 0 to 80% | 50 to 100% | –
7 | FC(F)(F)Oc1ccc(-n2cnc(-c3ccc(/C=N/NC(=S)Nc4ccccc4C4CCCC4)cc3)n2)cc1 [Compound I-35] | – | – | – | 213 to 216 °C
8 | Cc1cccc(NC(=S)N/N=C/c2ccc(-c3ncn(-c4ccc(OC(F)(F)F)cc4)n3)cc2)c1C(C)C [Compound I-43] | – | – | – | 219 to 222 °C
9 | Cc1ccc(C(C)C)c(NC(=S)NN)c1 [Compound I-46] | – | – | – | 167 to 169 °C
10 | CC(C)c1cc(F)ccc1NC(=S)NN [Compound I-50] | – | – | – | 163 to 167 °C
11 | CC(C)c1cc(F)c(F)cc1NC(=S)NN [Compound I-54] | – | – | – | 169 to 170 °C
12 | CC(C)c1cc(F)c(F)cc1NC(=S)N/N=C/c1ccc(-c2ncn(-c3ccc(OC(F)(F)F)cc3)n2)cc1 [Compound I-55] | – | – | – | 217 to 221 °C
